The results in this text go back to ChEMBL document CHEMBL4706537, “Suramin derivatives play an important role in blocking the interaction between FGF1 and FGFRD2 to inhibit cell proliferation” (Eur J Med Chem, 2020).

Activity calls are given as the source filed them. No cut-off for these calls is given here.

The target in test [1] is T1, Fibroblast growth factor 1/Fibroblast growth factor receptor 2 (Homo sapiens) (UniProt P05230+P21802). Nature of the test: Inhibition of FGF1/FGFR2 D2 domain interaction in human MCF7 cells assessed as decrease in cell count at 0.1 to 1 uM by WST-1 assay. It counts as cell-based. The following applies: dose 0.1-1 µM. On the technique in general: Tetrazolium dyes change colour on reduction, which living cells bring about.

The next test deals with MCF7. The experiment in a line: Cytotoxicity against FGF1-stimulated human MCF7 cells cultured in serum-starved media assessed as reduction in cell viability incubated for 48 hrs by WST-1 assay. In kind it is functional, cell-based. The following applies: MCF7, 48 h.
For test [2], the target named is T1, Fibroblast growth factor 1/Fibroblast growth factor receptor 2 (Homo sapiens). The experiment in a line: Inhibition of FGF1/FGFR2 D2 domain interaction in human MCF7 cells assessed as decrease in cell proliferation at 0.1 to 1 uM by WST-1 assay. It counts as cell-based. The following applies: dose 0.1-1 µM.

T1 sequence (P05230 whole entry, looked up, the tested form may be a part): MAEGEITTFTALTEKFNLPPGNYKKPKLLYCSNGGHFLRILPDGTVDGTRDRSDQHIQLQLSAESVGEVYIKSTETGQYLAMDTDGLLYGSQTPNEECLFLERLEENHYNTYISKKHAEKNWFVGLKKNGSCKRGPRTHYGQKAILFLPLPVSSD
T1 sequence (P21802 whole entry, looked up, the tested form may be a part): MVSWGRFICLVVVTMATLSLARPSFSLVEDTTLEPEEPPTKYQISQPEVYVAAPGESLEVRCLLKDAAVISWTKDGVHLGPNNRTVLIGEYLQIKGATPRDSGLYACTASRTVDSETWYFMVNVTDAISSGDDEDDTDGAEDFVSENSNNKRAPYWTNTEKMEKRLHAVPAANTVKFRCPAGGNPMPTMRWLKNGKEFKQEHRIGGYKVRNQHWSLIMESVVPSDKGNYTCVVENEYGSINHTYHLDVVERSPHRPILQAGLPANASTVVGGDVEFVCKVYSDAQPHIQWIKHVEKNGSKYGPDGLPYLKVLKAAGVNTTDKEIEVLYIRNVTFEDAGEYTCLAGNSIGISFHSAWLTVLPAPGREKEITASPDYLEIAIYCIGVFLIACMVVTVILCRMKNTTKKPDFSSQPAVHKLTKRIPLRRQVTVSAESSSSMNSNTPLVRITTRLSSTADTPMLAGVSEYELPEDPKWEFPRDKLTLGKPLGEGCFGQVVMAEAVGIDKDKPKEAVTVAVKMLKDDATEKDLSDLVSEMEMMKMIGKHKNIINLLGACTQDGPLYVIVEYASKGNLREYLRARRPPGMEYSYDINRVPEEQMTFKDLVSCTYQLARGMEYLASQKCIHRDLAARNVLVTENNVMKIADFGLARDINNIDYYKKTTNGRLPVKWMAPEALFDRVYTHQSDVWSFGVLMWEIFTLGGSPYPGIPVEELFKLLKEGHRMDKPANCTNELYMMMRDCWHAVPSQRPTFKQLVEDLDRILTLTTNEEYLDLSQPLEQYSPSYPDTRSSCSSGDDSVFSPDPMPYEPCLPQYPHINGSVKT

A word on the IC50: it is the concentration needed to halve the response being measured. For `O=C(Nc1ccc(C(=O)Nc2ccc(C(=O)Nc3cccc4cc(S(=O)(=O)O)ccc34)cc2)cc1)Nc1ccc(C(=O)Nc2ccc(C(=O)Nc3cccc4cc(S(=O)(=O)O)ccc34)cc2)cc1`, the inhibition entry in test [1] and in test [2] was “Active” throughout. In the test on MCF7, the IC50 came out at 619 µM.

Turning to `Cc1ccc(C(=O)Nc2ccc(S(=O)(=O)O)c3cc(S(=O)(=O)O)cc(S(=O)(=O)O)c23)cc1NC(=O)c1cccc(NC(=O)Nc2cccc(C(=O)Nc3cc(C(=O)Nc4ccc(S(=O)(=O)O)c5cc(S(=O)(=O)O)cc(S(=O)(=O)O)c45)ccc3C)c2)c1` [SURAMIN], the IC50 with MCF7 turned out to be 154 µM. Moreover, in test [2], the inhibition entry was “Active”.
